Values quoted from earlier work, collected in patent US10786520B2, “Aminoglycoside derivatives and uses thereof in treating genetic disorders” (Eloxx Pharmaceuticals Ltd., priority 2015, dated 2020).

System: human fibroblast cells

## CN[C@@H]1[C@@H](O)[C@@H](O[C@@H]2[C@@H](O)[C@H](O[C@H]3O[C@H]([C@@H](C)O)[C@@H](O)[C@H](O)[C@H]3N)[C@@H](N)C[C@H]2N)OC[C@]1(C)O [Compound G-418, G-418]
  LD50 against human fibroblast cells: 0.04 mg/mL
